Results on ten compounds are retold here after PubChem BioAssay AID200 (DTP/NCI, 2004).

The experiment relates to B6C3F1 mice, B16 melanoma ip, median survival T/C. The experiment in a line: NCI In Vivo Anticancer Drug Screen. Data for tumor model B16 Melanoma (intraperitoneal) in B6C3F1 mice. Conditions: endpoint: median survival time, schedule: Q01DX009 (ip), higher = longer survival. A digest of the protocol: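 Tumor-bearing mice received test compound; a separate group got vehicle only. Survival was then compared, with results reported as treated over control.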

[1] abbreviates: dose: 12.5 mg/kg/injection, vehicle: Klucel (hydroxypropylcellulose) (HPC).
Setting [2] is: dose: 25.0 mg/kg/injection, vehicle: Klucel (hydroxypropylcellulose) (HPC).
[3] abbreviates: dose: 12.5 mg/kg/injection, vehicle: saline.
[4] abbreviates: dose: 25.0 mg/kg/injection, vehicle: saline.
Setting [5] is: dose: 50.0 mg/kg/injection, vehicle: saline.
[6] abbreviates: dose: 100.0 mg/kg/injection, vehicle: saline.
Setting [7] is: dose: 200.0 mg/kg/injection, vehicle: saline.

Structures are written as SMILES. Where “and” joins values, the source holds several entries; their conditions need not be identical. Equal values may be shown once. Toxic doses and inconclusive results are not listed.

Turning to `C[C@]12CCC(=O)C(O)=C1CC[C@@H]1[C@@H]2CC[C@]2(C)C(=O)CC[C@@H]12`, the T/C is 88 % of control and 95 % of control under setting [1]; 97 % of control under setting [2]; 97 % of control and 102 % of control (dose: 50.0 mg/kg/injection, vehicle: Klucel (hydroxypropylcellulose) (HPC)); 92 % of control and 98 % of control (dose: 100.0 mg/kg/injection, vehicle: Klucel (hydroxypropylcellulose) (HPC)); 94 % of control and 95 % of control (dose: 200.0 mg/kg/injection, vehicle: Klucel (hydroxypropylcellulose) (HPC)); 87 % of control and 93 % of control (dose: 400.0 mg/kg/injection, vehicle: Klucel (hydroxypropylcellulose) (HPC)).

For the compound `Clc1cc(Cl)c(C[N+]23CN4CN(CN(C4)C2)C3)cc1Cl`, the T/C (dose: 12.5 mg/kg/injection, vehicle: saline with Tween-80) was 101 % of control; the T/C under setting [3] was 102 % of control; the T/C (dose: 25.0 mg/kg/injection, vehicle: saline with Tween-80) is 105 % of control; the T/C under setting [4] is 100 % of control; the T/C (dose: 50.0 mg/kg/injection, vehicle: saline with Tween-80) is 102 % of control; the T/C under setting [5] is 106 % of control. Moreover, the T/C (dose: 100.0 mg/kg/injection, vehicle: saline with Tween-80) was 107 % of control and the T/C under setting [6] is 111 % of control.

Consider `O=C(O)CP(=O)(O)O`, for which the T/C by setting is: under setting [3], 100 % of control; under setting [4], 102 % of control and 107 % of control; under setting [5], 102 % of control and 106 % of control; under setting [6], 118 % of control and 121 % of control; under setting [7], 164 % of control; (dose: 400.0 mg/kg/injection, vehicle: saline) 189 % of control and 227 % of control. Further, for the setting “dose: 800.0 mg/kg/injection, vehicle: saline”, the T/C is 206 % of control and 255 % of control.

Consider `O=NN(CCCl)C(=O)Oc1cc(Cl)c(Cl)cc1Cl`, for which the T/C was 99 % of control (dose: 3.12 mg/kg/injection, vehicle: Klucel (hydroxypropylcellulose) (HPC)); 99 % of control (dose: 6.25 mg/kg/injection, vehicle: Klucel (hydroxypropylcellulose) (HPC)); 188 % of control under setting [1]; 169 % of control and 205 % of control under setting [2].

Consider `CCCCCCCCCCCCCCCCS(=O)CC(O)COC(=O)c1ccc(C(=O)OCC(O)CS(=O)CCCCCCCCCCCCCCCC)cc1` (stereo not given), for which the T/C is, setting by setting: (dose: 12.5 mg/kg/injection, vehicle: saline + alcohol) 100 % of control; (dose: 25.0 mg/kg/injection, vehicle: saline + alcohol) 86 % of control; (dose: 50.0 mg/kg/injection, vehicle: saline + alcohol) 87 % of control.

As for `O=C(O)CNc1ccc(O)cc1`, the T/C runs as follows: under setting [4], 104 % of control; under setting [5], 105 % of control; (dose: 75.0 mg/kg/injection, vehicle: saline) 105 % of control; under setting [6], 112 % of control and 121 % of control; (dose: 150.0 mg/kg/injection, vehicle: saline) 105 % of control; under setting [7], 100 % of control and 101 % of control.

Turning to `CCOc1ccc2c(c1)/C(=C\C=C\C1CC(C)C3CC(OCC)CCC3N1CC)CC(C)N2CC` (stereo not given), the T/C reads like this: (dose: 1.25 mg/kg/injection, vehicle: saline + alcohol) 97 % of control; (dose: 2.5 mg/kg/injection, vehicle: saline + alcohol) 100 % of control; (dose: 5.0 mg/kg/injection, vehicle: saline + alcohol) 113 % of control.

As to `Nc1ncn(C2CC(O)C(CO)O2)c(=O)n1` (stereo not given), the T/C (dose: 0.25 mg/kg/injection, vehicle: Klucel (hydroxypropylcellulose) (HPC)) was 86 % of control; the T/C (dose: 0.25 mg/kg/injection, vehicle: saline) is 117 % of control; the T/C (dose: 15.62 micrograms/kg/injection, vehicle: Klucel (hydroxypropylcellulose) (HPC)) is 87 % of control; the T/C (dose: 31.25 micrograms/kg/injection, vehicle: Klucel (hydroxypropylcellulose) (HPC)) was 86 % of control; the T/C (dose: 125.0 micrograms/kg/injection, vehicle: Klucel (hydroxypropylcellulose) (HPC)) is 114 % of control; the T/C (dose: 250.0 micrograms/kg/injection, vehicle: Klucel (hydroxypropylcellulose) (HPC)) is 97 % of control.

For `COc1cc(C[C@@H]2COC(=O)[C@]2(O)Cc2ccc(O)c(OC)c2)ccc1O`, the T/C was 102 % of control (dose: 1.0 mg/kg/injection, vehicle: saline + alcohol); 88 % of control (dose: 2.0 mg/kg/injection, vehicle: saline + alcohol); 91 % of control (dose: 4.0 mg/kg/injection, vehicle: saline + alcohol); 101 % of control (dose: 8.0 mg/kg/injection, vehicle: saline + alcohol); 86 % of control (dose: 16.0 mg/kg/injection, vehicle: saline + alcohol).

Consider `O=C[C@@H](CO)O[C@H](C=O)c1c[nH]c(=O)[nH]c1=O`, for which the T/C was 105 % of control under setting [4] and 110 % of control under setting [5].
